Columns and labels:
DRG neurons = experiment: Calcium imaging of cultured DRG neurons; assay type: cell-based, mouse; details: for percentage of DRG neurons responding, WT vs MrgprA1GFP/GFP mice: comparison of WT and MrgprA1GFP/GFP mice
Procedure: Calcium Imaging of Cultured Dorsal Root Ganglia (DRG) Neurons
DRG neurons were plated on poly-D-lysine/laminin-coated coverslips and cultured for 24 hours. […] Briefly, neurons were loaded with Fura 2-acetomethoxy ester (Molecular Probes) for 30 min in dark at room temperature. After washing, neurons were imaged at 340/380 nm excitation to detect intracellular free calcium. All tests were performed with an experimenter blinded to the genotype.

[1] = system: small-diameter primary sensory neurons (DRG neurons); experiment: Whole-cell recordings of cultured DRG neurons (evoked action potentials); assay type: cell-based, mouse
Procedure: Whole-Cell Voltage-Clamp Recordings of Cultured DRG Neurons
Dissociated DRG neurons were plated on coverslips and cultured for 2-7 hours. For clamp recording, coverslips were perfused with extracellular solution (ECS) consisting of (in mM): NaCl 140, KCl 4, CaCl2 2, MgCl2 2, HEPES 10, Glucose 5, with pH adjusted to 7.38 using NaOH. Neurons with cell body diameters between 22 and 25 μm were recorded in the whole-cell voltage-clamp configuration with electrodes (pipette solution in mM: KCl 135, MgATP 3, Na2ATP 0.5, CaCl2 1.1, EGTA 2, Glucose 5, pH adjusted to 7.38) using an Axon 700B amplifier and the pCLAMP 9.2 software package (Axon Instruments). Electrodes were pulled (Narishige, Model pp-830) from borosilicate glass (WPI, Inc), and after filling they had resistances of 2-4 MΩ. Neurons were perfused with […] FMRFamide for 30 seconds and washed for 3 minutes. Action potentials were elicited with prolonged injections (500 ms) of a depolarizing current (200 pA) before and after FMRFamide treatment. All experiments were performed at room temperature with an experimenter blinded to the genotype.

[2] = adult mutant (Mrgpr-clusterΔ−/−) DRG neurons

| Substance | responses in DRG neurons (DRG neurons; [2]) | percentage of DRG neurons responding, WT vs MrgprA1GFP/GFP mice (DRG neurons) | responses in DRG neurons (DRG neurons; newborn Mrgpr-clusterΔ−/− mice) | firing rate ([1]; Mrgpr-deficient neurons) | number of action potentials evoked by injection of depolarizing current ([1]; WT DRG neurons, current-clamp) | cells with sensitizing effect / cells recorded ([1]; WT adult DRG neurons, cell body diameter 22 to 25 μm) | average number of action potentials after treatment ([1]; WT neurons, n=10, 500 ms, 200 pA depolarizing current, before treatment 3.6±1.6) | cells with sensitizing effect / cells recorded ([1]; neurons from Mrgpr-clusterΔ−/− mice) |
| --- | --- | --- | --- | --- | --- | --- | --- | --- |
| NPFF | no responses | did not differ significantly | few or no responses |  |  |  |  |  |
| FMRFamide | no responses | did not differ significantly | few or no responses | did not show an increase in firing rate | significant increase | 10 of 23 | 7.7±1.9 | 1 of 20 |
